Experimental data reported in the NIST ThermoML archive (doi:10.1021/je7006549).

Experiment: mn = molality of the nth substance listed, in mol/kg
Details: 101 kPa, Liquid

CC1=CC(=O)c2ccccc2C1=O [2-methyl-1,4-naphthalenedione] + c1ccccc1
Details	mass density [kg/m3]	viscosity [mPa·s]
303.15 K, m1 = 0.0334	869.4	0.5788
303.15 K, m1 = 0.0889	871.8	0.5842
303.15 K, m1 = 0.1332	873.7	0.588
303.15 K, m1 = 0.1778	875.6	0.5927
303.15 K, m1 = 0.2215	877.5	0.6006
303.15 K, m1 = 0.2681	879.5	0.6063
308.15 K, m1 = 0.0334	863.6	0.5408
308.15 K, m1 = 0.0889	866	0.5443
308.15 K, m1 = 0.1332	867.9	0.5484
308.15 K, m1 = 0.1778	869.8	0.5519
308.15 K, m1 = 0.2215	871.7	0.5598
308.15 K, m1 = 0.2681	873.7	0.5667
313.15 K, m1 = 0.0334	858.4	0.5057
313.15 K, m1 = 0.0889	860.8	0.5096
313.15 K, m1 = 0.1332	862.7	0.5142
313.15 K, m1 = 0.1778	864.6	0.5189
313.15 K, m1 = 0.2215	866.5	0.5242
313.15 K, m1 = 0.2681	868.5	0.5309
318.15 K, m1 = 0.0334	853	0.4782
318.15 K, m1 = 0.0889	855.4	0.4811
318.15 K, m1 = 0.1332	857.3	0.4847
318.15 K, m1 = 0.1778	859.2	0.4893
318.15 K, m1 = 0.2215	861.1	0.4945
318.15 K, m1 = 0.2681	863.1	0.5
323.15 K, m1 = 0.0334	847.7	0.4467
323.15 K, m1 = 0.0889	850.1	0.4489
323.15 K, m1 = 0.1332	852	0.4528
323.15 K, m1 = 0.1778	853.9	0.4566
323.15 K, m1 = 0.2215	855.8	0.461
323.15 K, m1 = 0.2681	857.8	0.4647
328.15 K, m1 = 0.0334	842.1	0.4206
328.15 K, m1 = 0.0889	844.5	0.4235
328.15 K, m1 = 0.1332	846.4	0.4266
328.15 K, m1 = 0.1778	848.3	0.4318
328.15 K, m1 = 0.2215	850.2	0.4347
328.15 K, m1 = 0.2681	852.2	0.4388
333.15 K, m1 = 0.0334	836.8	0.3946
333.15 K, m1 = 0.0889	839.2	0.3967
333.15 K, m1 = 0.1332	841.1	0.4003
333.15 K, m1 = 0.1778	843	0.4069
333.15 K, m1 = 0.2215	844.9	0.4084
333.15 K, m1 = 0.2681	846.9	0.4121

Cc1ccc(C)cc1 [1,4-dimethylbenzene] + CC1=CC(=O)c2ccccc2C1=O
m2 = 0
Details	mass density [kg/m3]	viscosity [mPa·s]
303.15 K	852	0.5726
308.15 K	847.7	0.5374
313.15 K	843.2	0.5178
318.15 K	838.7	0.4882
323.15 K	834.5	0.4595
328.15 K	829.9	0.4439
333.15 K	825.6	0.4189

CC1=CC(=O)c2ccccc2C1=O [2-methyl-1,4-naphthalenedione] + Cc1ccccc1
Details	mass density [kg/m3]	viscosity [mPa·s]
303.15 K, m1 = 0.0454	859.6	0.5365
303.15 K, m1 = 0.0909	861.7	0.544
303.15 K, m1 = 0.1365	863.8	0.5487
303.15 K, m1 = 0.1817	865.9	0.5572
303.15 K, m1 = 0.227	868	0.5612
303.15 K, m1 = 0.2728	870.1	0.5683
308.15 K, m1 = 0.0454	855	0.5088
308.15 K, m1 = 0.0909	857.1	0.516
308.15 K, m1 = 0.1365	859.2	0.5185
308.15 K, m1 = 0.1817	861.3	0.5246
308.15 K, m1 = 0.227	863.4	0.5277
308.15 K, m1 = 0.2728	865.5	0.5346
313.15 K, m1 = 0.0454	850	0.4814
313.15 K, m1 = 0.0909	852.1	0.488
313.15 K, m1 = 0.1365	854.2	0.4902
313.15 K, m1 = 0.1817	856.3	0.4955
313.15 K, m1 = 0.227	858.4	0.4987
313.15 K, m1 = 0.2728	860.5	0.5051
318.15 K, m1 = 0.0454	845.6	0.4535
318.15 K, m1 = 0.0909	847.7	0.4582
318.15 K, m1 = 0.1365	849.8	0.463
318.15 K, m1 = 0.1817	851.9	0.4677
318.15 K, m1 = 0.227	854	0.4753
318.15 K, m1 = 0.2728	856.1	0.4775
323.15 K, m1 = 0.0454	840.8	0.4321
323.15 K, m1 = 0.0909	842.9	0.4362
323.15 K, m1 = 0.1365	845	0.439
323.15 K, m1 = 0.1817	847.1	0.443
323.15 K, m1 = 0.227	849.2	0.4459
323.15 K, m1 = 0.2728	851.3	0.4515
328.15 K, m1 = 0.0454	836.1	0.413
328.15 K, m1 = 0.0909	838.2	0.4147
328.15 K, m1 = 0.1365	840.3	0.4176
328.15 K, m1 = 0.1817	842.4	0.4208
328.15 K, m1 = 0.227	844.5	0.4242
328.15 K, m1 = 0.2728	846.6	0.4303
333.15 K, m1 = 0.0454	831.2	0.3872
333.15 K, m1 = 0.0909	833.3	0.3909
333.15 K, m1 = 0.1365	835.4	0.3927
333.15 K, m1 = 0.1817	837.5	0.398
333.15 K, m1 = 0.227	839.6	0.4065
333.15 K, m1 = 0.2728	841.7	0.4137

Cc1ccccc1 [toluene] + CC1=CC(=O)c2ccccc2C1=O
m2 = 0
Details	mass density [kg/m3]	viscosity [mPa·s]
303.15 K	857.5	0.5253
308.15 K	852.9	0.4933
313.15 K	847.9	0.4717
318.15 K	843.5	0.4491
323.15 K	838.7	0.4244
328.15 K	834	0.4082
333.15 K	829.1	0.3835

CCc1ccccc1 [ethylbenzene] + CC1=CC(=O)c2ccccc2C1=O
m2 = 0
Details	mass density [kg/m3]	viscosity [mPa·s]
303.15 K	858	0.5986
308.15 K	853.5	0.5691
313.15 K	849.5	0.5372
318.15 K	844.7	0.506
323.15 K	840.5	0.4805
328.15 K	835.9	0.4566
333.15 K	831.6	0.4371

CC1=CC(=O)c2ccccc2C1=O [2-methyl-1,4-naphthalenedione] + Cc1cccc(C)c1
Details	mass density [kg/m3]	viscosity [mPa·s]
303.15 K, m1 = 0.0452	857.6	0.5673
303.15 K, m1 = 0.0902	859.6	0.5771
303.15 K, m1 = 0.1352	861.6	0.5802
303.15 K, m1 = 0.1802	863.6	0.5844
303.15 K, m1 = 0.2254	865.6	0.5902
303.15 K, m1 = 0.272	867.7	0.6031
308.15 K, m1 = 0.0452	853.1	0.5351
308.15 K, m1 = 0.0902	855.1	0.5422
308.15 K, m1 = 0.1352	857.1	0.5467
308.15 K, m1 = 0.1802	859.1	0.5523
308.15 K, m1 = 0.2254	861.1	0.5566
308.15 K, m1 = 0.272	863.2	0.5654
313.15 K, m1 = 0.0452	848.9	0.5098
313.15 K, m1 = 0.0902	850.9	0.5144
313.15 K, m1 = 0.1352	852.9	0.5188
313.15 K, m1 = 0.1802	854.9	0.5237
313.15 K, m1 = 0.2254	856.9	0.5284
313.15 K, m1 = 0.272	859	0.5352
318.15 K, m1 = 0.0452	844.4	0.4864
318.15 K, m1 = 0.0902	846.4	0.4931
318.15 K, m1 = 0.1352	848.4	0.4977
318.15 K, m1 = 0.1802	850.4	0.5013
318.15 K, m1 = 0.2254	852.4	0.505
318.15 K, m1 = 0.272	854.5	0.5117
323.15 K, m1 = 0.0452	840.3	0.4593
323.15 K, m1 = 0.0902	842.3	0.4642
323.15 K, m1 = 0.1352	844.3	0.4669
323.15 K, m1 = 0.1802	846.3	0.4711
323.15 K, m1 = 0.2254	848.3	0.4753
323.15 K, m1 = 0.272	850.4	0.4817
328.15 K, m1 = 0.0452	835.7	0.4381
328.15 K, m1 = 0.0902	837.7	0.4432
328.15 K, m1 = 0.1352	839.7	0.4456
328.15 K, m1 = 0.1802	841.7	0.4497
328.15 K, m1 = 0.2254	843.7	0.4539
328.15 K, m1 = 0.272	845.8	0.463
333.15 K, m1 = 0.0452	831.6	0.4148
333.15 K, m1 = 0.0902	833.6	0.4198
333.15 K, m1 = 0.1352	835.6	0.4242
333.15 K, m1 = 0.1802	837.6	0.4269
333.15 K, m1 = 0.2254	839.6	0.429
333.15 K, m1 = 0.272	841.7	0.4342
